Source: patent US6723699B1, “Treating disorders by application of insulin-like growth factors and analogs” (Cephalon, Inc., priority 1989, dated 2004)
Where no end group is shown, it is not given here. [ ]: non-standard residue; d: D form. Tyr(3,5-I2) = N[C@@H](Cc1cc(I)c(O)c(I)c1)C(=O)O

Legend:
[1] = test system: E18 cortical neuronal cultures; experiment: Cortical neuronal cell survival, calcein-AM fluorometric viability assay; type: cell-based, rat; conditions: for total number of cells surviving relative to control (in words): 100 μM peptide, 4 days, insulin/serum-free media
Procedure: To determine whether carboxy-terminal linear peptide derivatives of IGFs can promote the survival of cortical neuronal cells, dissociated cultures of embryonic rat cortex were prepared and assayed for the total number of viable cells present after incubation in the presence or absence of peptide. Cortices were dissected from E18 embryonic rats, dissociated by enzymatic digestion or mechanical dissociation and seeded at a density of 6.25×10^4 cells/cm^2 in defined insulin/serum-free media (Bottenstein and Sato, PNAS, 76:514-517, (1979)) in the presence or absence of 100 μM peptide. […] This compound is taken up by all cells but can only be converted to a fluorescent derivative by live cells. The relative fluorescence values obtained reflect the total viable cell number. […] NO: 5) (Example 22), and the amino acid sequence […] To determine the potency of the carboxy terminal peptides we analyzed the ability of peptides to promote cell survival. We measured the total number of surviving cells within cortical neuronal cultures relative to basal control cultures. FIG. 16 illustrates the concentration-response relationship for peptide […] All peptides examined are effective within the micromolar concentration range in the fluorometric viability assay.

IGF-I receptor = biological target: T1, IGF-I receptor (Rattus norvegicus, UniProt P24062); experiment: 125I-[Threonine59]IGF-I displacement (IGF-I receptor competition) assay, rat brain homogenate; type: binding; conditions: for PERCENT MAX. BOUND: peptide 100 μM
T1 construct: Brain tissue containing the cerebral cortex and cerebellum was dissected from adult Sprague-Dawley rats; from tissue; host or cells: adult Sprague-Dawley rat brain (cerebral cortex and cerebellum), homogenate pellet
T1 sequence (P24062 31-737 limits assumed): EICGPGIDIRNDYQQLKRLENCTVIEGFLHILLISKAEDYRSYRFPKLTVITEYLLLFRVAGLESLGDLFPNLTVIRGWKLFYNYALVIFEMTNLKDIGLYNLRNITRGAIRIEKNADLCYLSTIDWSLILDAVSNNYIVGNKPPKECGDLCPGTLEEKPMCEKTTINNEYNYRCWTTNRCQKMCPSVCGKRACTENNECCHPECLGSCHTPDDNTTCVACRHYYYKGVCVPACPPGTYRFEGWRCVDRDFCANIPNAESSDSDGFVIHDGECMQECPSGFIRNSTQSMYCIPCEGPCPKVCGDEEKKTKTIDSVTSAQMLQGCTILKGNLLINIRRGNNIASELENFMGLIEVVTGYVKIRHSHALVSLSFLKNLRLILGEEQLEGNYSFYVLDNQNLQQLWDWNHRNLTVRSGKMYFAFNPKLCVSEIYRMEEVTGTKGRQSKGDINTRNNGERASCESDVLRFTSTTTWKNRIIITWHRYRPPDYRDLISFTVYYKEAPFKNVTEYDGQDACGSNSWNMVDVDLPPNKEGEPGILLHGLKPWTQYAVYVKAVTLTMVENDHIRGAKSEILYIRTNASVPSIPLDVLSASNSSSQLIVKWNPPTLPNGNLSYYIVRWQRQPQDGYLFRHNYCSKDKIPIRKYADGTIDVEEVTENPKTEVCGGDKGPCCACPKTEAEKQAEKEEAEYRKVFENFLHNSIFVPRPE
T1 sequence (P24062 742-1370 partner limits assumed): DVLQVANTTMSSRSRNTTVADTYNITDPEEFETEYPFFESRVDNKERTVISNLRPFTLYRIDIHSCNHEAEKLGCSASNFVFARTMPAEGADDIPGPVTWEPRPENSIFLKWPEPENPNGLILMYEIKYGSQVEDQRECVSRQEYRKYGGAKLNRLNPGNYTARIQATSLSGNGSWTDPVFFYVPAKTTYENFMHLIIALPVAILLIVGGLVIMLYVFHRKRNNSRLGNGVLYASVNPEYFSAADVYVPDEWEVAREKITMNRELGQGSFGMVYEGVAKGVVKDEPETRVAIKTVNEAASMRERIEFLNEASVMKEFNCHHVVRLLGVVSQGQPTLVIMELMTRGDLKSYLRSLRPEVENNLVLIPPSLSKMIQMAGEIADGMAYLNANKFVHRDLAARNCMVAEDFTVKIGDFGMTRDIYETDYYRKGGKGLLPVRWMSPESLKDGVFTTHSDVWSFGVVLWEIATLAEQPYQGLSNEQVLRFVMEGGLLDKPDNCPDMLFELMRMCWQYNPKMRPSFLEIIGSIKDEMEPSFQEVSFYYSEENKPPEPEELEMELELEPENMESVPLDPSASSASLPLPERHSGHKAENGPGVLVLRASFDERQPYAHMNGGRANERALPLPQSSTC
Procedure: Brain tissue containing the cerebral cortex and cerebellum was dissected from adult Sprague-Dawley rats (Hilltop Lab Animals, Inc. Scottsdale, Pa.) and homogenized at low power for 5 minutes in a Brinkmann Polytron homogenizer (Westbury, N.Y.) containing 50 volumes of ice-cold buffer consisting of 10 mM HEPES, 0.5% BSA, 0.0125% NEM, 0.025% bacitracin, and 100 KIU/ml aprotinin, pH 7.6 (Bohannon et al., Endocrinology 119:943-945 (1986). Following homogenization, the tissue was collected after centrifugation at 7800×g for 20 minutes and resuspended in 10 volumes of assay buffer. Tissue (50 μl), 100 μl ^125I-[Threonine^59]IGF-I (20 pM), and 50 μl of buffer or peptides of varying concentration were added to 96-well plates and incubated on ice for 3 hours. After the incubation period, the tissue was collected on Whatman GF/C filters that had been pre-soaked in 0.01% polyethylenimine and washed four times with ice-cold assay buffer using a Brandel cell harvester (Gaithersburg, Md.). The filters were removed and the bound ^125I-[Threonine 59]IGF-I was measured using a Beckman Model 5500B Gamma Counter.

[2] = test system: 125I-[Threonine59]IGF-I binding to brain tissue sections; experiment: 125I-[Threonine59]IGF-I binding displacement on rat brain tissue sections
Procedure: Brains were removed intact from adult Sprague-Dawley rats, frozen on powdered dry ice, and cut into 20 μm sections (at the level of the cerebellum and brain stem) which were
thaw-mounted onto gelatin-coated glass microscope slides (Herkenham and Pert, J. Neurosci. 2:1129-1149 (1982)). Using a modification of the method of Bohannon et al. (1986), the tissue sections were covered with 250 μl of HEPES assay buffer (see Example 1) containing 0.01 nM ^125I-[Threonine^59]IGF-I alone or in combination with unlabeled IGF-I, IGF-II, or synthetic peptide fragments thereof. The sections were incubated at 4° C. for 24 hours and then rinsed in three 1-minute changes (200 ml each) of ice-cold HEPES assay buffer. The tissue sections were then wiped off the slides with filter paper, and the tissue-bound radioactivity was measured in a Beckman Model 5500B Gamma Counter.

[3] = test system: brain ornithine decarboxylase; experiment: Induction of brain ornithine decarboxylase after intracerebral injection, 4 day old rats; type: in vivo, rat; conditions: 6 hours
Procedure: The in vivo activity of IGF-I, IGF-II or synthetic peptide derivatives of these molecules was tested using a biochemical marker for CNS neurotrophic activity, the induction of brain ornithine decarboxylase. The induction (i.e. increased activity) of ornithine decarboxylase has been reported to be a general marker for the actions of a variety of trophic factors. (Schwartz et al., Dev. Brain Res. 1:403-413 (1981); Kanje et al., Brain Res. 381:24-28 (1986); Russell et al., Life Sci. 19:1297-1306 (1976); MacDonnell et al. Proc. Natl. Acad. Sci. USA 74, 4681-4684 (1977); […] et al. Proc. Natl. Acad. Sci. USA 82, 4365-4368 (1985)). Sprague-Dawley rats, 4 days old, were injected intracerebrally (in the area of the lateral ventricle) with 5 μl of 0.1 M phosphate-buffered saline (PBS) containing IGF-I, IGF-II or a synthetic peptide derivative (1.25-2.5 μg dose, with 6 animals per treatment group). After 6 hours, the brains were removed, and ornithine decarboxylase was assayed essentially as described by Lewis et al., Proc. Natl. Acad. Sci. USA 75:1021-1023 (1978).

[4] = test system: cultured rat cortical cells; experiment: [3H]-leucine incorporation in cultured rat cortical cells; type: cell-based; conditions: low density 24 hour mixed cortical cultures
Procedure: (§1) The ability of IGF-I and a synthetic derivative of IGF-II (IGF-II(54-67)) to increase the incorporation of [^3H]-leucine and to promote the survival of neurite bearing cells was examined in cultured rat cortical cells (the numbers “54-67” in IGF-II indicate the fragment includes amino acid residues 54-67 of native IGF-II).
(§2) Measurements were performed, using standard techniques known to those skilled in the art, on dissociated cortical cells obtained from day 18-19 embryonic rats. Cells were seeded at 1.5×10^4/cm^2 on poly-1-ornithine-laminin coated plastic tissue culture cells in serum-free N2 medium (Bottenstein et al. Proc. Natl. Acad. Sci. U.S.A. 76: 514-517 (1978)). [^3H]-leucine was added to cells at plating for the incorporation assay. Cultures were terminated 24 hours after plating and measured for either [^3H]-leucine incorporation or for the number of neuritic cells by microscopic examination.

cortical neurons = experiment: Survival of neurite bearing cells in cultured rat cortical cells; type: cell-based; conditions: 24 hours after plating
Procedure: as §1, §2

[5] = test system: E18 rat cortices cultures; experiment: Cortical neurite outgrowth / regeneration; type: cell-based; conditions: 100 μM peptide, 96 hours
Procedure: To determine whether carboxy-terminal linear peptides of IGFs could promote cortical neurite regeneration, dissociated preparations of E18 rat cortices were cultured in defined insulin/serum-free media in the presence or absence of 100 μM peptides: IGF-II(54-67) (SEQ ID NO:3), IGF-I(55-70) (SEQ ID NO:4), peptide TYCAPAKSE (SEQ ID NO:1), peptide EPYCAPPAKSE (SEQ ID NO:5), IGF-II(54-67; D-Y) (SEQ ID NO:45) and IGF-II(58-67) (SEQ ID NO:2). The cultures were observed 96 hours after peptide exposure and photomicrographs were taken.

[6] = type: in vitro ADME
Procedure: The peptides of Examples 22 and 23 are modified peptides containing the D isomer of tyrosine (D-Y) at position 59 within IGF-II amino acids 54-67 or 58-67. These modifications were made to prevent peptide bond degradation due to enzymatic cleavage amino terminal to position 60 of IGF-II(54-67) and (58-67). Using a non-denaturing HPLC size exclusion chromatography technique the integrity of peptides IGF-II(54-67) and IGF-II(58-67) was analyzed before and after incubation with cells.

| Substance | total number of cells surviving relative to control (in words) [1] | other results |
| --- | --- | --- |
| ALLEKYCAKPAKSE [ALLEK YCAKP AKSE] | increased the total number of cells surviving | – |
| ALLET YCATP AKSE (ALLETYCATPAKSE) [IGF-II(54-67)] | increased the total number of cells surviving | PERCENT MAX. BOUND (IGF-I receptor): 94%; displacement of 125I-[Threonine59]IGF-I (in words) (IGF-I receptor; rat brain homogenate): not significantly effective displacers; PERCENT MAX. BOUND ([2]; peptide .025 mM): 132%; PERCENT MAX. BOUND ([2]; peptide .25 mM): 167%; brain ornithine decarboxylase activity (in words) [3]: increased brain ornithine decarboxylase activity; [3H]-leucine incorporation (in words) [4]: increased [^3H]-leucine incorporation; survival of cortical neurons (neurite bearing cells) (in words) (cortical neurons): increased the survival of cortical neurons; neurite outgrowth / regeneration (in words) [5]: neurite regenerative responses were observed |
| ALLETDYCATPAKSE (ALLET[dY]CATPAKSE) [IGF-II(54-67; D-Y)] | increased the total number of cells surviving | stability against degradation when incubated with cells (in words) [6]: stabilized against degradation when incubated with cells; neurite outgrowth / regeneration (in words) [5]: neurite regenerative responses were observed |
| APLKP AKSA (APLKPAKSA) [IGF-I(62-70)] | – | PERCENT MAX. BOUND (IGF-I receptor): 83% |
| APSTCEYKA [APSTC EYKA] | increased the total number of cells surviving | – |
| CAPAKSE [CAPAK SE] | increased the total number of cells surviving | – |
| CATPA KSE (CATPAKSE) [IGF-II (60-67)] | increased the total number of cells surviving | – |
| EALLETYCATPAKSE [EALLE TYCAT PAKSE] | increased the total number of cells surviving | – |
| EPYCAPPAKSE | increased the total number of cells surviving | neurite outgrowth / regeneration (in words) [5]: neurite regenerative responses were observed |
| GYGSS SRRAP QT (GYGSSSRRAPQT) [IGF-I(30-41)] | – | PERCENT MAX. BOUND (IGF-I receptor): 94% |
| LETYC ATP (LETYCATP) [IGF-II (56-63)] | increased the total number of cells surviving | – |
| RRLEMYCAPLKPAKSA [IGF-I(55-70)] | increased the total number of cells surviving | neurite outgrowth / regeneration (in words) [5]: neurite regenerative responses were observed |
| TDYCAPAKSE (T[dY]CAPAKSE) | increased the total number of cells surviving | – |
| TDYCATPAKSE (T[dY]CATPAKSE) [IGF-II(58-67; D-Y)] | increased the total number of cells surviving | – |
| TPAKS E (TPAKSE) [IGF-II(62-67)] | – | PERCENT MAX. BOUND (IGF-I receptor): 83% |
| TY(I2)CAP AKSE (T[Tyr(3,5-I2)]CAPAKSE) [iodinated-TYCAPAKSE] | increased the total number of cells surviving | – |
| TYCAP A (TYCAPA) | increased the total number of cells surviving | – |
| TYCAPAKSE | increased the total number of cells surviving | concentration-response of cortical neuronal cell survival (in words) ([1]; relative to basal control cultures): promotes cortical neuronal cell survival in a dose-dependent manner; neurite outgrowth / regeneration (in words) [5]: neurite regenerative responses were observed |
| TYCAT PAK (TYCATPAK) [IGF-II (58-65)] | increased the total number of cells surviving | – |
| TYCATPAKSE [IGF-II(58-67)] | increased the total number of cells surviving | neurite outgrowth / regeneration (in words) [5]: neurite regenerative responses were observed |
| YCAPA | increased the total number of cells surviving | – |
| YCAPAKSE [YCAPA KSE] | increased the total number of cells surviving | – |
